In data set [1] the target is T1, cytochrome P450 2C9-isoenzyme (Homo sapiens, UniProt P11712).
T1 construct: is assayed at 37° C. with human liver microsomes; from tissue; host or cells: human liver microsomes
The experiment in a line: Inhibition of CYP-2C9 (diclofenac hydroxylation, human liver microsomes). Type of data set: in vitro ADME. To be noted: human liver microsomes 0.1 mg/mL, diclofenac 10 μM, 37° C. As to the method:
(§1) All assays are carried out on a robotic system in 96 well plates. The final incubation volume contains TRIS buffer (0.1 M), MgCl2 (5 mM), human liver microsomes (0.1 mg/mL), diclofenac (10 μM) and the test compound at five different concentrations or no compound (high control) in duplicate (e.g. highest concentration 10-50 μM with subsequent serial 1:4 dilutions). Following a short preincubation period, reactions are started with the cofactor (NADPH, 1 mM) and stopped by cooling the incubation down to 8° C. and subsequently by addition of one volume of acetonitrile. An internal standard solution—the stable isotope 13C6-hydroxydiclofenac—is added after quenching of incubations. Peak area analyte (=metabolite formed) and internal standard is determined by LC-MS/MS. The resulting peak area ratio analyte to internal standard in these incubations is compared to a control activity containing no test compound. Within each of the assay runs, the IC50 of a positive control inhibitor (sulfaphenazole) is determined. Experimental IC50 values are calculated by least square regression according to the following equation: % control activity=(100% control activity/(1+(I/IC50)S)))−B with I=inhibitor concentration S=slope factor B=background activity (lower plateau of the inhibition curve) If the inhibition of the reaction is already >50% at the lowest concentration of the test compound, the IC50 is assigned “<lowest concentration tested” (usually <0.4 μM). If the inhibition of the reaction is still <50% at the highest concentration of the test compound, the IC50 is assigned “>highest concentration tested” (usually >50 μM).
(In general: Microsomes from liver hold many membrane-bound enzymes, among them those of drug oxidation.)

Data set [2] can be described thus: Aqueous solubility from DMSO stock, LC-UV. To be noted: aqueous buffer, kinetic from dmso stock; buffer pH 2.2, 24 h shaking, 2.5% DMSO. Type of data set: physicochemical. How it is done:
The aqueous solubility of the compounds of the invention is determined by comparing the amount dissolved in buffer to the amount in an acetonitrile/water (1/1) solution. Starting from a 10 mM DMSO stock solution aliquots are diluted with acetonitrile/water (1/1) or buffer, respectively. After 24 h of shaking, the solutions are filtrated and analyzed by LC-UV. The amount dissolved in buffer is compared to the amount in the acetonitrile solution. Solubility is usually being measured from 0.001 to 0.125 mg/mL at a DMSO concentration of 2.5%. If more than 90% of the compound is dissolved in buffer, the value is marked with “>”.

A further data set addresses human GPR40 receptor (Homo sapiens, UniProt O14842). The data set can be described thus: IP1 accumulation measurements using the IPOne assay system. Type of data set: cell-based. To be noted: 1321N1 cells stably expressing human GPR40; 1 h stimulation at 37° C. How it is done:
IP1 accumulation measurements using the IPOne assay system—1321N1 cells stably expressing human GPR40 receptor (Euroscreen, Belgium) are seeded 24 h before the assay in white 384-well plates in culture medium containing 10% FCS, 1% Na-Pyruvate and 400 μg/mL G418. IP1 is assayed according to the manufacturer's description (Cisbio Bioassays, France). In brief, the assay is started by substitution of the culture medium by stimulation buffer (Hepes 10 mM, CaCl2 1 mM, MgCl2 0.5 mM, KCl 4.2 mM, NaCl 146 mM, glucose 5.5 mM and LiCl 50 mM, pH 7.4). Cells are stimulated for 1 h at 37° C., 5% CO2 by addition of the compounds that are diluted in stimulation buffer containing LiCl. Assays are stopped by adding HTRF-conjugates (IP1-d2 and Anti-IP1 cryptate Tb) and lysis buffer, provided by the manufacturer. After an incubation time of 1 h at room temperature plates are measured using an EnVision™, Perkin Elmer. The obtained fluorescence ratios at 665/615 […] are then used to calculate the pEC50 values using Assay Explorer 3.3 Software (Accelrys, Inc.) by interpolation using an IP1 reference curve and subsequent sigmoidal curve fitting allowing for a variable hill slope.

The target in data set [3] is T2, cytochrome P450 2C8-isoenzyme (Homo sapiens, UniProt P10632).
T2 construct: is assayed at 37° C. with human liver microsomes; from tissue; host or cells: human liver microsomes
T2 sequence (P10632 1-490): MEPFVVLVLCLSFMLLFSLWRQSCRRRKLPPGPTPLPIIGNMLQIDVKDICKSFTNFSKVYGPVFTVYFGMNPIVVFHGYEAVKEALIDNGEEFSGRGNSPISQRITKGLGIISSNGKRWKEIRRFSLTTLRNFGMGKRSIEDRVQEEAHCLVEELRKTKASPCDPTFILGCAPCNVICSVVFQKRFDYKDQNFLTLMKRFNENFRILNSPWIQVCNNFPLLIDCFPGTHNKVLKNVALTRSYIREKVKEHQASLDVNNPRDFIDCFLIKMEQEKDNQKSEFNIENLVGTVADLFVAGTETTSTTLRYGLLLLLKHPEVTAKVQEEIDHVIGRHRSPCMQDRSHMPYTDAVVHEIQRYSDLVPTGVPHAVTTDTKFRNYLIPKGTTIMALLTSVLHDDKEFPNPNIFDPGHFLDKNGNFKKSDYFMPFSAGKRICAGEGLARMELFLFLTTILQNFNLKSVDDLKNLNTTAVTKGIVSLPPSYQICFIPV
The data set can be described thus: Inhibition of CYP-2C8 (amodiaquine deethylation, human liver microsomes). Type of data set: in vitro ADME. To be noted: human liver microsomes 0.05 mg/mL, amodiaquine 1 μM, 37° C. As to the method: All assays are carried out on a robotic system in 96 well plates. The final incubation volume contains TRIS buffer (0.1 M), MgCl2 (5 mM), human liver microsomes (0.05 mg/mL), amodiaquine (1 μM) and the test compound at five different concentrations or no compound (high control) in duplicate (e.g. highest concentration 10-50 μM with subsequent serial 1:4 dilutions). Following a short preincubation period, reactions are started with the cofactor (NADPH, 1 mM) and stopped by cooling the incubation down to 8° C. and subsequently by addition of one volume of acetonitrile. An internal standard solution—the stable isotope d5-desethylamodiaquine—is added after quenching of incubations. Peak area analyte (=metabolite formed) and internal standard is determined by LC-MS/MS. The resulting peak area ratio analyte to internal standard in these incubations is compared to a control activity containing no test compound. Within each of the assay runs, the IC50 of a positive control inhibitor (Montelukast) is determined. Experimental IC50 values are calculated by least square regression according to the following equation: % control activity=(100% control activity/(1+(I/IC50)S))−B with I=inhibitor concentration; S=slope factor; B=background activity (lower plateau of the inhibition curve) If the inhibition of the reaction is already >50% at the lowest concentration of the test compound, the IC50 is assigned “<lowest concentration tested” (usually <0.4 μM). If the inhibition of the reaction is still <50% at the highest concentration of the test compound, the IC50 is assigned “>highest concentration tested” (usually >50 μM).

Data set [4] in a line: Chemical stability (degradation kinetics) in acidic aqueous media, HPLC. In kind it is physicochemical. To be noted: acetonitrile/0.1 M aqueous HCl (2:3), pH ca. 1.2, 37° C. As to the method: Degradation kinetics is used to simulate chemical stability of compounds in the acidic part of the gastro intestinal tract. […] Their application as medical drugs to treat human diseases is therefore less restricted and troublesome. The chemical stability of the compounds of the invention at pH value of ca. 1.2 is determined as follows: Compound is dissolved in an HPLC vial either in a mixture of acetonitrile/0.1 M aqueous HCl (2:3; pH ca. 1.2) or in a mixture of acetonitrile/McIlvaine buffer pH 7.4 (2:3) to get a concentration of approximately 0.25 mg/ml. The vial was then transferred into an HPLC autosampler system and maintained at a temperature of 37° C. A first sample is taken and injected immediately into a standard HPLC system with a UV DAD detector. Further samples are injected after 2, 4, 6, 8 and 10 hours. Degradation of the compound is measured by determining the recovery rate of compound [%] for each injection using an HPLC standard gradient method. Therefore the peak area of the main peak for the first injection (AUt0) is determined and set as 100%. Peak area of the main peak is determined also for the further injections (AUtn, n=2, 4, 6, 8, 10) and expressed as fraction of […][%].

For a further data set, the target named is T3, CYP2C9 (Homo sapiens, UniProt P11712).
T3 construct: from tissue; host or cells: human liver microsomes
T3 sequence (P11712 whole entry): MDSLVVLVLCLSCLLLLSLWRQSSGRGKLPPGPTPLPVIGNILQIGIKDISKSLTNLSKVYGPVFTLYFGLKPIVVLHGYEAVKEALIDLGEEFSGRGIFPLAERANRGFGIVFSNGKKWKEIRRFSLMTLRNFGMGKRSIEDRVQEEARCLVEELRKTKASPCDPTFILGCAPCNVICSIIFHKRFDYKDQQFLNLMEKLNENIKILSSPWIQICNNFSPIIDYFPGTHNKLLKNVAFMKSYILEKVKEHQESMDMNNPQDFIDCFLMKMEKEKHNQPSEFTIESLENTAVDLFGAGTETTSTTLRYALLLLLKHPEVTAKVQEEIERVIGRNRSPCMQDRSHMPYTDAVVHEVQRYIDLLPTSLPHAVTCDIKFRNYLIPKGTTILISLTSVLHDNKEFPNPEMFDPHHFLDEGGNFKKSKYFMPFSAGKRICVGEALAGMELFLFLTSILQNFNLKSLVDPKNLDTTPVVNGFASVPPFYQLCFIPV
The data set can be described thus: Inhibition of CYP-2C9 (diclofenac hydroxylation, human liver microsomes). In kind it is in vitro ADME. To be noted: probe diclofenac (10 μM), hydroxylation, human liver microsomes 0.1 mg/mL, 37° C. As to the method: as §1

pEC50, pIC50: −log10 of the molar value. In brackets after ≈: the same amount, converted by molar mass. A value given as a limit tells only on which side of the number the result lay.

Sequence of human GPR40 receptor (O14842 whole entry): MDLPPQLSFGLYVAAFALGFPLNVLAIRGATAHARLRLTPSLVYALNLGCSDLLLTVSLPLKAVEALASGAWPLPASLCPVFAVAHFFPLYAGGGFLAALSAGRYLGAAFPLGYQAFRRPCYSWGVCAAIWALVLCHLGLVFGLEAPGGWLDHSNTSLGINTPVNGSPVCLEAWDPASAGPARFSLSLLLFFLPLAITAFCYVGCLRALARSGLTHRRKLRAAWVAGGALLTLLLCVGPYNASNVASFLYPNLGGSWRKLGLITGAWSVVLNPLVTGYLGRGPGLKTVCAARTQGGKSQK
T1 sequence (P11712 whole entry): as the sequence (P11712 whole entry) above

Consider `Cc1cc(OCCC(C)(C)O)cc(C)c1-c1cccc2c1CC[C@H]2Nc1cnc2c(c1)OC[C@H]2CC(=O)O` [Example 4, 2-[(3S)-6-{[(1R)-4-[4-(3-Hydroxy-3-methylbutoxy)-2,6-dimethylphenyl]-2,3-dihydro-1H-inden-1-yl]amino}-2H,3H-furo[3,2-b]pyridin-3-yl]acetic acid], for which the values for the pIC50 in data set [1] and in data set [3] were less than 4.30 and 4.37, respectively. Moreover, the solubility at 24 h in data set [2] was 57 µg/mL (≈ 110 µM). On human GPR40 receptor, this molecule had a pEC50 of 7.19. For the same molecule, the “Amount of degradation after 2 h” value in data set [4] was less than 0.5%.

As to `Cc1cc(-c2nnn(C)n2)cc(C)c1-c1ccc(F)c2c1CC[C@H]2Nc1cnc2c(c1)OC[C@H]2CC(=O)O` [Example 5, 2-[(3S)-6-{[(1R)-4-[2,6-Dimethyl-4-(2-methyl-2H-1,2,3,4-tetrazol-5-yl)phenyl]-7-fluoro-2,3-dihydro-1H-inden-1-yl]amino}-2H,3H-furo[3,2-b]pyridin-3-yl]acetic acid], the pIC50 is 4.32 in data set [1] and 4.66 in data set [3]. The same molecule yielded a solubility at 24 h in data set [2] of 7 µg/mL (≈ 13.6 µM). On human GPR40 receptor, the pEC50 was 7.59. In addition, the “Amount of degradation after 2 h” value in data set [4] was found to be 0.4%.

For `CC(C)c1ccccc1-c1cccc2c1CC[C@H]2Nc1cnc2c(c1)OCC2CC(=O)O` (stereo partly drawn) [Example 129, 2-(6-{[(1R)-4-[2-(Propan-2-yl)phenyl]-2,3-dihydro-1H-inden-1-yl]amino}-2H,3H-furo[3,2-b]pyridin-3-yl)acetic acid], the values for the negative logarithm of the IC50 (pIC50) (on CYP2C9; in data set [3]) were 4.30 and 4.92, respectively. Further, in data set [2], the solubility at 24 h stood at 4 µg/mL (≈ 9.33 µM). The molecule also had a negative-log EC50 (pEC50) at human GPR40 receptor of 6.74.

Usually pIC50 stands for the IC50 on a negative log10 scale, so that one unit is a factor of ten. Read a low pIC50 as a large IC50. As a reminder, the solubility is the concentration that dissolves in the medium under given conditions. The low end stands for little dissolved substance, the high end for much dissolved substance. The term pEC50 denotes the EC50 on a negative log10 scale, so that one unit is a factor of ten. A high value points to a low EC50.

Values taken from US20180354962A1, “[{[2,3-Dihydro-1H-inden-1-yl]amino}-2H,3H-furo[3,2-b]pyridin-3-yl]acetic acids, pharmaceutical compositions and uses thereof” (Boehringer Ingelheim International GmbH, priority 2015, published 2018).
